#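 Growth conditions: 96-well plates. Treatment: test compound, 48 hours, 5 concentrations. Analysis: linear interpolation between bracketing concentrations; unreached endpoints set to highest concentration. The concentration for full growth arrest is given as TGI.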
# Assays:
# Test in all cases: NCI anticancer screen, dose series, 48 h
# [1] = tested on: CCRF-CEM leukemia
# [2] = tested on: PC-3 prostate
# [3] = tested on: NCI/ADR-RES ovarian
# [4] = tested on: OVCAR-5 ovarian
# [5] = tested on: MDA-N
# [6] = tested on: RPMI-8226 leukemia
# [7] = tested on: SF-295 CNS
# [8] = tested on: SK-MEL-28 melanoma
# [9] = tested on: 786-0 renal
# [10] = tested on: SK-MEL-5 melanoma
# [11] = tested on: DU-145 prostate
# [12] = tested on: HT29 colon
# [13] = tested on: UACC-257 melanoma
# [14] = tested on: HCT-116 colon
# [15] = tested on: M14 melanoma
# [16] = tested on: MDA-MB-231 breast
# [17] = tested on: U251 CNS
# [18] = tested on: SK-MEL-2 melanoma
# [19] = tested on: IGROV1 ovarian
# [20] = tested on: NCI-H226 lung
# [21] = tested on: SNB-75 CNS
# [22] = tested on: MALME-3M melanoma
# [23] = tested on: SF-268 CNS
# [24] = tested on: OVCAR-3 ovarian
# [25] = tested on: UACC-62 melanoma
# [26] = tested on: MDA-MB-435
# [27] = tested on: BT-549 breast
# [28] = tested on: SN12C renal
# [29] = tested on: HL-60(TB) leukemia
# [30] = tested on: COLO 205 colon
# [31] = tested on: MOLT-4 leukemia
# [32] = tested on: SNB-19 CNS
# [33] = tested on: HOP-62 NSCLC
# [34] = tested on: K-562 leukemia
# [35] = tested on: ACHN renal
# [36] = tested on: OVCAR-8 ovarian
# [37] = tested on: UO-31 renal
# [38] = tested on: NCI-H23 lung
# [39] = tested on: HS 578T breast
# [40] = tested on: SR leukemia
# [41] = tested on: HCC-2998 colon
# [42] = tested on: NCI-H460 lung
# [43] = tested on: MCF7 breast
# [44] = tested on: A549 NSCLC
# [45] = tested on: SW-620 colon
# [46] = tested on: HCT-15 colon
# [47] = tested on: KM12 colon
# [48] = tested on: OVCAR-4 ovarian
# [49] = tested on: A498 renal
# [50] = tested on: HOP-92 NSCLC
# [51] = tested on: TK-10 renal
# [52] = tested on: NCI-H522 lung
# [53] = tested on: T-47D breast
# [54] = tested on: SF-539 CNS
# [55] = tested on: LOX IMVI melanoma
# [56] = tested on: CAKI-1 renal
# [57] = tested on: RXF 393 renal
# [58] = tested on: EKVX NSCLC
# [59] = tested on: SK-OV-3 ovarian
smiles,measurement,setting,value
C/C=C(/C)C(=O)OC1CC(C)[C@H]2CC(=O)C(C)=C2CC1C(C)(C)OC(C)=O (stereo not given in full),TGI,[1],65.8 µM
same,TGI,[2],> 100 µM
same,TGI,[3],71.7 µM
same,TGI,[4],> 100 µM
same,TGI,[5],> 100 µM
same,TGI,[6],60.8 µM
same,TGI,[7],> 100 µM
same,TGI,[8],> 100 µM
same,TGI,[9],> 100 µM
same,TGI,[10],29.7 µM
same,TGI,[11],> 100 µM
same,TGI,[12],> 100 µM
same,TGI,[13],51.6 µM
same,TGI,[14],40.7 µM
same,TGI,[15],63.8 µM
same,TGI,[16],> 100 µM
same,TGI,[17],> 100 µM
same,TGI,[18],27 µM
same,TGI,[19],> 100 µM
same,TGI,[20],> 100 µM
same,TGI,[21],> 100 µM
same,TGI,[22],54 µM
same,TGI,[23],> 100 µM
same,TGI,[24],45.4 µM
same,TGI,[25],48.6 µM
same,TGI,[26],68.6 µM
same,TGI,[27],85.4 µM
same,TGI,[28],> 100 µM
same,TGI,[29],49.8 µM
same,TGI,[30],43.8 µM
same,TGI,[31],76.8 µM
same,TGI,[32],> 100 µM
same,TGI,[33],95 µM
same,TGI,[34],> 100 µM
same,TGI,[35],> 100 µM
same,TGI,[36],> 100 µM
same,TGI,[37],83.9 µM
same,TGI,[38],> 100 µM
same,TGI,[39],> 100 µM
same,TGI,[40],78.9 µM
same,TGI,[41],72.1 µM
same,TGI,[42],42.8 µM
same,TGI,[43],> 100 µM
same,TGI,[44],> 100 µM
same,TGI,[45],> 100 µM
same,TGI,[46],> 100 µM
same,TGI,[47],91.6 µM
same,TGI,[48],68 µM
same,TGI,[49],41.1 µM
same,TGI,[50],78 µM
same,TGI,[51],> 100 µM
same,TGI,[52],53 µM
same,TGI,[53],46.2 µM
same,TGI,[54],41 µM
same,TGI,[55],36.2 µM
same,TGI,[56],> 100 µM
same,TGI,[57],54.6 µM
same,TGI,[58],> 100 µM
c1ccc2c(c1)Sc1nccc3ccnc-2c13,TGI,[1],> 100 µM
same,TGI,[2],> 100 µM
same,TGI,[3],> 100 µM
same,TGI,[4],> 100 µM
same,TGI,[5],> 100 µM
same,TGI,[6],> 100 µM
same,TGI,[7],> 100 µM
same,TGI,[8],> 100 µM
same,TGI,[9],> 100 µM
same,TGI,[10],> 100 µM
same,TGI,[11],> 100 µM
same,TGI,[12],65.5 µM
same,TGI,[13],> 100 µM
same,TGI,[14],> 100 µM
same,TGI,[15],> 100 µM
same,TGI,[16],> 100 µM
same,TGI,[17],> 100 µM
same,TGI,[18],> 100 µM
same,TGI,[19],> 100 µM
same,TGI,[20],> 100 µM
same,TGI,[21],58.7 µM
same,TGI,[22],> 100 µM
same,TGI,[23],> 100 µM
same,TGI,[24],> 100 µM
same,TGI,[25],> 100 µM
same,TGI,[26],> 100 µM
same,TGI,[27],> 100 µM
same,TGI,[28],> 100 µM
same,TGI,[29],> 100 µM
same,TGI,[30],> 100 µM
same,TGI,[31],56.6 µM
same,TGI,[32],> 100 µM
same,TGI,[33],> 100 µM
same,TGI,[34],> 100 µM
same,TGI,[35],43.4 µM
same,TGI,[36],> 100 µM
same,TGI,[37],47.6 µM
same,TGI,[59],> 100 µM
same,TGI,[38],> 100 µM
same,TGI,[39],65.3 µM
same,TGI,[40],> 100 µM
same,TGI,[41],> 100 µM
same,TGI,[42],33.2 µM
same,TGI,[43],> 100 µM
same,TGI,[45],> 100 µM
same,TGI,[47],> 100 µM
same,TGI,[48],> 100 µM
same,TGI,[49],> 100 µM
same,TGI,[50],> 100 µM
same,TGI,[51],> 100 µM
same,TGI,[52],97.1 µM
same,TGI,[53],> 100 µM
same,TGI,[54],> 100 µM
same,TGI,[55],> 100 µM
same,TGI,[56],41 µM
same,TGI,[57],> 100 µM
same,TGI,[58],> 100 µM
